Experimental data reported in US8372342B2, “Apparatus for monitoring thrombus formation and method of monitoring thrombus formation” (Fujimori Kogyo Co., Ltd., priority 2005, dated 2013).

Columns and labels:
blood coagulation [1] = experiment: Time taken for coagulation of blood in Eppendorf tubes (Reference Experiment 1); format: cell-based
Description: The blood immediately after blood sampling, the blood prepared by adding a volume of one tenth of 300 μg/ml of a maize-derived trypsin inhibitor to the first blood, and the blood prepared by adding a thrombin aptamer that recognizes exosite I to the second blood so as to be 5 μM in concentration were provided. Then, for these three kinds of the blood, the time taken for coagulation were measured in Eppendorf tubes (made of polypropylene). The sample was reversed up side down every one minute and the flowability thereof was confirmed.
Further, when 5 μM of a thrombin aptamer that recognizes exosite I and 5 μM of a thrombin aptamer that recognizes exosite II were used in combination, blood coagulation was not confirmed even after 3 hours even in the case of the blood free of the trypsin inhibitor.

blood coagulation [2] = experiment: Thromboelastogram waveform of coagulation (Reference Experiment 3); format: cell-based; settings: aptamers to exosite I and II; stored at room temperature for 15 minutes
Description: FIG. 11(A) is a result obtained by analyzing a thromboelastogram waveform of coagulation by adding 10 μM of each of aptamers for exosite I and exosite II to the blood, and after storing the blood at room temperature for 15 minutes, adding 40 μM of each of antisense DNAs of both aptamer. FIG. 11(B) illustrates the thromboelastogram waveform of the blood just after blood sampling.
FIG. 11(A) is an analysis of a waveform of coagulation with thromboelastogram by storing the blood added with […] of aptamers to exosite I and exosite II at room temperature for 15 minutes, and then by adding 40 μM of antisense DNAs of both aptamers. FIG. 11(B) is a thromboelastogram waveform of the blood just after blood sampling.

[3] = tested on: thrombus formation in citrate-treated blood; experiment: Thrombus formation monitoring in the FIG. 1 flow apparatus, collagen-coated constriction portion, citrate-treated blood released with CaCl2; format: cell-based; settings: 1 mg/ml added to solution A
Description: An apparatus for monitoring thrombus formation illustrated in FIG. 1 is used to fill a syringe 20 with 50 ml of a citrate-treated blood (solution A) in which 9 parts by volume of the blood immediately after the blood sample is mixed with 1 part by volume of 3.2% sodium citrate, and to fill a syringe 21 with 10 ml of 0.2M CaCl2 (solution B). The syringes 20 and 21 are connected to transparent nylon tubes (inlet tube 11 and drug tube 12) with an inner diameter of 3 mm. Both tubes are joined together at a T-shaped joint (cheese) and then connected to a polycarbonate thrombus formation chamber 10 of 3 mm in inner diameter and 1 cm in length through a single nylon tube (inlet tube 11) of 3 mm in inner diameter and 3 cm in length. The thrombus formation chamber 10 itself is constructed as a removable cassette. The joint portion between the cassette and the nylon tube (inlet tube 11) is made liquid-tight via an O-ring made of silicon rubber. A glass member is fixed on the inside of the cassette by an epoxy-based adhesive, thereby forming a constriction portion 14. The constriction portion 14 is designed so that the most narrowed site of the constriction portion 14 may have an inner diameter (the maximum gap between the constriction portion 14 and the inner wall) of 1.5 mm. In addition, the thrombus formation chamber 10 is connected liquid-tight with a tube as a discharge tube 13 having the same diameter and formed of the same material through an O-ring made of silicon rubber, and thus a thrombus monitoring apparatus 1 as illustrated in FIG. 1 is manufactured. Note that flange-type pressure gauges 40 and 41 are mounted on parts of the inlet tube 11 and the discharge tube 13 near the thrombus formation chamber 10 via joints (cheeses), respectively. […]
An apparatus for monitoring thrombus formation 1 is prepared and thrombus formation is then monitored in a manner similar to Example 1, except that the solution A of Example 1 is further added with an unfractionated heparin (prepared from pig mucous) at a concentration of 1 mg/ml.

[4] = tested on: thrombus formation in whole blood; experiment: Microchip pressure measurement, collagen/tissue thromboplastin chamber, blood anticoagulated with trypsin inhibitor and thrombin aptamers, released with antisense DNAs (Example 17 system); format: cell-based
Text: A microchip 300, where the substrate and the cover of the microchip shown in FIG. 9(B) and FIG. 9(C), respectively, made of the same materials as those of Example 7 were pressure-bonded, was used. The microchip 300 comprises a blood coagulation inhibitor inlet tube 322 and a discharge tube 313 which were connected to the substrate 100 as in the case with the discharge tube of Example 7. However, the grooves of the microchip 300 of FIG. 9 are all formed of 200 μm in depth. […] A solution was prepared such that 1 vial of the Sysmex Corporation PT reagent (tissue thromboplastin) was dissolved in 1 ml of purified water and then dialyzed in purified water, the dialyzed product in purified water was mixed with collagen type I (manufactured by Nitta Gelatin Inc.) at a ratio of 1:1. After that, the applied portion was dried at 4° C. in air and thrombus formation chamber 311 was covered, which was used as a thrombus inducing material 315. The blood was collected after the addition of an anticoagulation treatment agent such that the final concentrations of the respective components in the syringe were 25 μg/ml for maize-derived trypsin inhibitor, 10 μM for exosite I thrombin aptamer, 10 μM for exosite II thrombin aptarner (5′-[…]-3′: SEQ D NO. 3). Immediately before monitoring, the blood thus collected was added with antisense DNAs with respect to thrombin aptamers of exosite I and exosite II so that each of them would reach to a concentration of 40 μM. Then, a syringe (1 ml syringe, manufactured by Terumo Corporation) was filled with the blood and provided as the sample syringe 320 shown in FIG. 9. The My Flow (manufactured by Arbiotec Co., Ltd), which is a micro-feeding pump capable of monitoring the inner pressure of a liquid-feeding pump, was connected to a pressure inlet tube 317 shown in FIG. 9. Mineral oil was pressed into the microchip 300 from the top of the syringe 320 and the blood was pushed out into the microchip 300 at a flow rate of 50 μl/min, while the pressure exerted on the sample syringe 320 was monitored. […]

[5] = tested on: plasma coagulation (APTT); experiment: APTT measurement on plasma (Reference Experiment 2); format: biochemical; settings: plasma added with 500-μM exosite I recognizing thrombin aptamer
Description: The measurement of APTT was carried out on […] of plasma with respect to each of sample A added with […] of physiological saline solution, sample B added with […] of 500-μM exosite I recognizing thrombin aptamer, and sample C added with 10 μl of a solution containing 500-μM exosite I recognizing thrombin aptamer and 1500-μM exosite I recognizing thrombin aptamer antisense DNA. The sample A was 44 seconds, the sample B was 2 minutes or more, and the sample C was 45 seconds.

[6] = tested on: thrombus formation in citrate-treated blood; experiment: Thrombus formation monitoring in a glass tube chamber with collagen-immersed silk as thrombus inducing material; format: cell-based; settings: 0.1 mg/ml added to solution A; flown for 15 minutes
Description: After flowing the solution A in the syringe 20 at 3 ml/min and the solution B in the syringe 21 at 0.3 ml/min for 15 minutes, the thrombus formation chamber 10 was detached and the inside thereof was then washed with a physiological saline solution.

[7] = tested on: thrombus formation in whole blood; experiment: Microchip pressure measurement, blood anticoagulated with citric acid and maize-derived trypsin inhibitor, released with calcium chloride (Example 20 system); format: cell-based; settings: 2 μg/ml
Description: The blood sampling was carried out with the addition of 3.2% citric acid so that the ratio of citric acid and the blood be 1:9. Further, the blood was added with a maize-derived trypsin inhibitor at a concentration of 25 μg/ml to carry out an anticoagulation reaction. Immediately after adding calcium chloride to the anticoagulated blood so that it should reach 15 mM with respect to the anticoagulated blood at the time of monitoring thrombus formation, the blood was added to a syringe (1-ml syringe, manufactured by Terumo Corporation), followed by inflowing the blood into the same microchip as that of Example 17 at a flow rate of 40 μl/min. Subsequently, a change in pressure was measured using the same system as that of Example 17. The pressure began to rise 15 minutes after starting the pressure measurement and it rose up to about 60 kPa.
The blood sampling was carried out with the addition of an anticoagulation treatment agent in manner similar to Example 20. Subsequently, the same procedure as that of Example 20 was carried out, except that ReoPro (LILLY Co., Ltd.) was added at a concentration of 2 μg/ml. The measurement of pressure was then performed. The pressure began to rise 20 minutes after starting the pressure measurement and it rose up to about 15 kPa after 25 minutes (FIG. 15).

With “thrombin aptamer that recognizes exosite I and thrombin aptamer that recognizes exosite II: combination of exosite I aptamer (SEQ ID NO. 1) and exosite II aptamer 5′-AGTCCGTGGTAGGGCAGGTTGGGGTGACT-3′ (SEQ ID NO. 3) (chain 1 GGTTGGTGTGGTTGG; listed as DNA, chemistry not given here)” as the molecule, how does the “time without confirmed blood coagulation” value (blood coagulation [1]; 5 μM of each aptamer in combination, blood free of the trypsin inhibitor) read?
Its value is > 3 h.

And the “effect on blood storage / coagulation by thromboelastogram” value (blood coagulation [2])?
Its value is “allow the blood to be stored”.

Which “thrombus in the thrombus formation chamber by visual observation after washing” value [3] does the source give for unfractionated heparin here?
The value was “thrombus cannot be found”.

What about the “decrease in blood flow discharged from the discharge tube” value ([3]; solutions flown for 10 minutes) of the same molecule?
The value was “no decrease in blood flow”.

What about the “pressure difference between inlet tube and discharge tube pressure gauges” value ([3]; solutions flown for 10 minutes) of the same molecule?
The value was “no pressure difference”.

What about the “pressure rose up to” value ([4]; 1 unit/ml, flow rate 50 μl/min) of the same molecule?
Its value is “about 10 kPa”.

And the “time after starting the measurement at which pressure began to rise” value ([4]; 1 unit/ml, flow rate 50 μl/min)?
Its value is 13 min.

What does the source list for “5′-GGTTGGTGTGGTTGG-3′ (listed as DNA, chemistry not given here) [thrombin aptamer]”?
coagulation time (blood coagulation [1]; 5 μM exosite I thrombin aptamer added to the blood already containing trypsin inhibitor): 62 min; APTT [5]: ≥ 2 min

`CC1CNc2c(cccc2S(=O)(=O)N[C@@H](CCCNC(=N)N)C(=O)N2CC[C@@H](C)C[C@@H]2C(=O)O)C1` (stereo partly shown) [Argatroban] was tested. Which “presence of thrombus in glass tube by visual observation after washing” value [6] did it give?
The value was “did not confirm the presence of thrombus”.

B1: ReoPro: ReoPro (LILLY Co., Ltd.) (antibody, chains of the INN, looked up, V domains shown)
VH: EVQLQQSGTVLARPGASVKMSCEASGYTFTNYWMHWVKQRPGQGLEWIGAIYPGNSDTSYIQKFKGKAKLTAVTSTTSVYMELSSLTNEDSAVYYCTLYDGYYVFAYWGQGTLVTVSA
VL: EIVLTQSPVTLSVTPGDSVSLSCRASRDISNNLHWFQQTSHESPRLLIKYASQSMSGIPSRFSGSGSGTDFTLSINSVETEDFGMYFCQQTNSWPYTFGGGTKLEIK
modifications: Fab
How did the increase in pressure ([4]; 50 μg/ml, measurement for 18 minutes) turn out when B1 was run?
Its increase in pressure is “could not be confirmed”.

What about the “pressure rose up to” value ([7]; after 25 minutes) of the same molecule?
The value was “about 15 kPa”.

And the “time after starting the pressure measurement at which pressure began to rise” value ([7]; flow rate 40 μl/min)?
Its value is 20 min.
